How the values were obtained:
Experiment in all cases: In vitro antibacterial evaluation: minimum inhibitory concentration (MIC), broth dilution method
Type in all cases: cell-based
Staphylococcus sp. = settings: for MIC Staphylococcus aureus (ATCC 29213): strain ATCC 29213; for MIC Staphylococcus aureus (GC 1131): strain GC 1131; for MIC Staphylococcus aureus (GC 3051): strain GC 3051; for MIC Staphylococcus aureus (GC 3053): strain GC 3053; for MIC Staphylococcus aureus (GC 4541): strain GC 4541; for MIC Staphylococcus aureus (GC 4542): strain GC 4542; for MIC Staphylococcus aureus-SMITH (GC 4543): strain GC 4543; for MIC Staphylococcus aureus (GC 4544): strain GC 4544; for MIC Staphylococcus aureus (GC 4545): strain GC 4545; for MIC Staphylococcus haemolyticus (GC 4546): strain GC 4546; for MIC Coagulase Negative Staphylococcus (GC 4547): strain GC 4547; for MIC Coagulase Negative Staphylococcus (GC 4548): strain GC 4548; for MIC Coagulase Negative Staphylococcus (GC 4549): strain GC 4549; for MIC Coagulase Negative Staphylococcus (GC 4551): strain GC 4551
Procedure, shortened: (§1)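 NCCLS M7-A2 broth dilution with Mueller-Hinton II, testing 64-0.06 μg/mL antibiotic against 5×10^5 CFU/mL inocula. Test strains include recent methicillin-, penicillin- or vancomycin-resistant clinical isolates. MIC is the lowest concentration preventing growth.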

Streptococcus sp. = settings: 18 hours at 35° C.
Procedure, shortened: as §1

Escherichia coli = settings: 18 hours at 35° C.
Procedure, shortened: as §1

Enterococcus sp. = settings: 18 hours at 35° C.
Procedure, shortened: as §1

[1] = Streptococcus agalactiae (GC 4564)
[2] = Streptococcus pneumoniae (ATCC 6301)
[3] = Streptococcus pneumoniae (GC 1894)
[4] = Streptococcus pneumoniae (GC 4565)
[5] = Streptococcus pyogenes (GC 4563)
[6] = broth dilution, inoculum 5×10^5 CFU/mL
[7] = Enterococcus faecalis (ATCC 29212)
[8] = Enterococcus faecalis (GC 2242)
[9] = Enterococcus faecalis (GC 2691)
[10] = Enterococcus faecalis (GC 3059)
[11] = Enterococcus faecalis (GC 4552)
[12] = Enterococcus faecalis (GC 4553)
[13] = Enterococcus faecalis (GC 4554)
[14] = Enterococcus faecalis (GC 6189)

N=C1NCC(C(O)C2NC(=O)C(Cc3ccc(OC4OC(CO)C(OC5OC6COC(c7ccccc7)OC6C(O)C5O)C(O)C4O)cc3)NC(=O)C(CC3CCCCC3)NC(=O)CNC(=O)C(CO)NC(=O)C(C(O)C3CNC(=N)N3C3OC(CO)C(O)C(O)C3O)NC2=O)N1 (stereo not drawn) [Example 199, Cyclo[3-cyclohexylalanyl-O-[4-O-(4,6-O-benzylidenehexopyranosyl)hexopyranosyl]tyrosyl-3-(2-iminoimidazolidin-4-yl)seryl-3-(3-hexopyranosyl-2-iminoimidazolidin-4-yl)-seryl-serylglycyl]]
2 µg/mL: MIC Staphylococcus aureus (ATCC 29213) (Staphylococcus sp.) | MIC Staphylococcus aureus (GC 1131) (Staphylococcus sp.) | MIC Staphylococcus aureus (GC 3053) (Staphylococcus sp.) | MIC Staphylococcus aureus (GC 4541) (Staphylococcus sp.) | MIC Staphylococcus aureus (GC 4544) (Staphylococcus sp.) | MIC Coagulase Negative Staphylococcus (GC 4547) (Staphylococcus sp.) | MIC Enterococcus avium (GC 4558) (Enterococcus sp.; Enterococcus avium (GC 4558)) | MIC Enterococcus faecalis (GC 2242) (Enterococcus sp.; [8]) | MIC Enterococcus faecalis (GC 6189) (Enterococcus sp.; [14]) | MIC Enterococcus faecium (GC 4557) (Enterococcus sp.; Enterococcus faecium (GC 4557)) | MIC Enterococcus avium (GC 4558) (Enterococcus sp.; [6]) | MIC Enterococcus faecalis (GC 2242) (Enterococcus sp.; [6]) | MIC Enterococcus faecalis (GC 6189) (Enterococcus sp.; [6]) | MIC Enterococcus faecium (GC 4557) (Enterococcus sp.; [6])
<0.12 µg/mL: MIC Streptococcus agalactiae (GC 4564) (Streptococcus sp.; [1]) | MIC Streptococcus pneumoniae (ATCC 6301) (Streptococcus sp.; [2]) | MIC Streptococcus pneumoniae (GC 1894) (Streptococcus sp.; [3]) | MIC Streptococcus pneumoniae (GC 4565) (Streptococcus sp.; [4]) | MIC Streptococcus pyogenes (GC 4563) (Streptococcus sp.; [5]) | MIC Streptococcus agalactiae (GC 4564) (Streptococcus sp.; [6]) | MIC Streptococcus pneumoniae (ATCC 6301) (Streptococcus sp.; [6]) | MIC Streptococcus pneumoniae (GC 1894) (Streptococcus sp.; [6]) | MIC Streptococcus pneumoniae (GC 4565) (Streptococcus sp.; [6]) | MIC Streptococcus pyogenes (GC 4563) (Streptococcus sp.; [6])
1 µg/mL: MIC Staphylococcus aureus (GC 3051) (Staphylococcus sp.) | MIC Staphylococcus aureus (GC 4542) (Staphylococcus sp.) | MIC Staphylococcus aureus-SMITH (GC 4543) (Staphylococcus sp.) | MIC Staphylococcus aureus (GC 4545) (Staphylococcus sp.) | MIC Staphylococcus haemolyticus (GC 4546) (Staphylococcus sp.) | MIC Coagulase Negative Staphylococcus (GC 4551) (Staphylococcus sp.) | MIC Escherichia coli (GC 4560) (Escherichia coli)
64 µg/mL: MIC Escherichia coli (ATCC 25922) (Escherichia coli)
32 µg/mL: MIC Escherichia coli (GC 4559) (Escherichia coli)
4 µg/mL: MIC Enterococcus faecalis (ATCC 29212) (Enterococcus sp.; [7]) | MIC Enterococcus faecalis (GC 2691) (Enterococcus sp.; [9]) | MIC Enterococcus faecalis (GC 3059) (Enterococcus sp.; [10]) | MIC Enterococcus faecalis (GC 4552) (Enterococcus sp.; [11]) | MIC Enterococcus faecalis (GC 4553) (Enterococcus sp.; [12]) | MIC Enterococcus faecalis (GC 4554) (Enterococcus sp.; [13]) | MIC Enterococcus faecium (GC 2243) (Enterococcus sp.; Enterococcus faecium (GC 2243)) | MIC Enterococcus faecium (GC 4556) (Enterococcus sp.; Enterococcus faecium (GC 4556)) | MIC Enterococcus faecalis (ATCC 29212) (Enterococcus sp.; [6]) | MIC Enterococcus faecalis (GC 2691) (Enterococcus sp.; [6]) | MIC Enterococcus faecalis (GC 3059) (Enterococcus sp.; [6]) | MIC Enterococcus faecalis (GC 4552) (Enterococcus sp.; [6]) | MIC Enterococcus faecalis (GC 4553) (Enterococcus sp.; [6]) | MIC Enterococcus faecalis (GC 4554) (Enterococcus sp.; [6]) | MIC Enterococcus faecium (GC 2243) (Enterococcus sp.; [6]) | MIC Enterococcus faecium (GC 4556) (Enterococcus sp.; [6])
0.5 µg/mL: MIC Coagulase Negative Staphylococcus (GC 4548) (Staphylococcus sp.) | MIC Coagulase Negative Staphylococcus (GC 4549) (Staphylococcus sp.)

N=C1NCC(C(O)C2NC(=O)C(Cc3ccc(OC4OC(CO)C(OC5OC6COC(Cc7ccccc7)OC6C(O)C5O)C(O)C4O)cc3)NC(=O)C(CC3CCCCC3)NC(=O)CNC(=O)C(CO)NC(=O)C(C(O)C3CNC(=N)N3C3OC(CO)C(O)C(O)C3O)NC2=O)N1 (stereo not drawn) [Example 200, Cyclo[3-cyclohexylalanyl-O-[4-O-[4,6-O-phenethylidene-hexopyranosyl]hexopyranosyl]tyrosyl-3-(2-iminoimidazolidin-4-yl)seryl-3-(3-hexopyranosyl-2-iminoimidazolidin-4-yl)serylserylglycyl]]
32 µg/mL: MIC Escherichia coli (ATCC 25922) (Escherichia coli) | MIC Escherichia coli (GC 4559) (Escherichia coli)
<0.06 µg/mL: MIC Streptococcus pneumoniae (ATCC 6301) (Streptococcus sp.; [2]) | MIC Streptococcus pneumoniae (GC 1894) (Streptococcus sp.; [3]) | MIC Streptococcus pneumoniae (GC 4565) (Streptococcus sp.; [4]) | MIC Streptococcus pyogenes (GC 4563) (Streptococcus sp.; [5]) | MIC Streptococcus pneumoniae (ATCC 6301) (Streptococcus sp.; [6]) | MIC Streptococcus pneumoniae (GC 1894) (Streptococcus sp.; [6]) | MIC Streptococcus pneumoniae (GC 4565) (Streptococcus sp.; [6]) | MIC Streptococcus pyogenes (GC 4563) (Streptococcus sp.; [6])
0.5 µg/mL: MIC Enterococcus faecalis (GC 2242) (Enterococcus sp.; [8]) | MIC Enterococcus faecalis (GC 2242) (Enterococcus sp.; [6])
0.12 µg/mL: MIC Streptococcus agalactiae (GC 4564) (Streptococcus sp.; [1]) | MIC Streptococcus agalactiae (GC 4564) (Streptococcus sp.; [6])
4 µg/mL: MIC Enterococcus avium (GC 4558) (Enterococcus sp.; Enterococcus avium (GC 4558)) | MIC Enterococcus faecalis (ATCC 29212) (Enterococcus sp.; [7]) | MIC Enterococcus faecalis (GC 2691) (Enterococcus sp.; [9]) | MIC Enterococcus faecalis (GC 4553) (Enterococcus sp.; [12]) | MIC Enterococcus faecalis (GC 4554) (Enterococcus sp.; [13]) | MIC Enterococcus faecium (GC 2243) (Enterococcus sp.; Enterococcus faecium (GC 2243)) | MIC Enterococcus faecium (GC 4556) (Enterococcus sp.; Enterococcus faecium (GC 4556)) | MIC Enterococcus avium (GC 4558) (Enterococcus sp.; [6]) | MIC Enterococcus faecalis (ATCC 29212) (Enterococcus sp.; [6]) | MIC Enterococcus faecalis (GC 2691) (Enterococcus sp.; [6]) | MIC Enterococcus faecalis (GC 4553) (Enterococcus sp.; [6]) | MIC Enterococcus faecalis (GC 4554) (Enterococcus sp.; [6]) | MIC Enterococcus faecium (GC 2243) (Enterococcus sp.; [6]) | MIC Enterococcus faecium (GC 4556) (Enterococcus sp.; [6])
1 µg/mL: MIC Staphylococcus aureus (ATCC 29213) (Staphylococcus sp.) | MIC Staphylococcus aureus (GC 3051) (Staphylococcus sp.) | MIC Staphylococcus aureus (GC 4541) (Staphylococcus sp.) | MIC Staphylococcus aureus (GC 4542) (Staphylococcus sp.) | MIC Staphylococcus aureus-SMITH (GC 4543) (Staphylococcus sp.) | MIC Staphylococcus aureus (GC 4545) (Staphylococcus sp.) | MIC Staphylococcus haemolyticus (GC 4546) (Staphylococcus sp.) | MIC Coagulase Negative Staphylococcus (GC 4548) (Staphylococcus sp.) | MIC Coagulase Negative Staphylococcus (GC 4549) (Staphylococcus sp.) | MIC Escherichia coli (GC 4560) (Escherichia coli)
2 µg/mL: MIC Staphylococcus aureus (GC 1131) (Staphylococcus sp.) | MIC Staphylococcus aureus (GC 3053) (Staphylococcus sp.) | MIC Staphylococcus aureus (GC 4544) (Staphylococcus sp.) | MIC Coagulase Negative Staphylococcus (GC 4547) (Staphylococcus sp.) | MIC Coagulase Negative Staphylococcus (GC 4551) (Staphylococcus sp.) | MIC Enterococcus faecalis (GC 3059) (Enterococcus sp.; [10]) | MIC Enterococcus faecalis (GC 4552) (Enterococcus sp.; [11]) | MIC Enterococcus faecalis (GC 6189) (Enterococcus sp.; [14]) | MIC Enterococcus faecium (GC 4557) (Enterococcus sp.; Enterococcus faecium (GC 4557)) | MIC Enterococcus faecalis (GC 3059) (Enterococcus sp.; [6]) | MIC Enterococcus faecalis (GC 4552) (Enterococcus sp.; [6]) | MIC Enterococcus faecalis (GC 6189) (Enterococcus sp.; [6]) | MIC Enterococcus faecium (GC 4557) (Enterococcus sp.; [6])

From patent US8247211B2, “Glycopeptide antibiotics” (American Cyanamid Company, priority 2001, dated 2012)
